Experiments:
barnyard grass [1] = test: Test Example 3: herbicidal effect by foliage application, Wagner pot (Table 18, symbol H); type: in vivo, barnyard grass (Echinochloa crus-galli); conditions: amount of applied herbicide 320 g/ha
In short: (§1)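 Plants were sown in alluvial soil held under 0.1–0.5 cm standing water and grown 14 days in a greenhouse at 25–30 °C. An emulsifiable formulation, water-diluted to the set dose, was then sprayed onto the foliage, and effects were scored three weeks later using previously defined criteria.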

velvetleaf [2] = test: Test Example 5: herbicidal effect by foliage application, plastic box (Table 20, symbol M); type: in vivo, velvetleaf (Abutilon theophrasti); conditions: foliage application, 320 g/ha, evaluated three weeks after application
In short: (§2)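 Plants sown in sterilized diluvial soil and grown 14 days in a greenhouse at 25° C to 30° C, then sprayed on the foliage with the compound's emulsion diluted in water to a predetermined herbicide amount. Injury to weeds and crops scored three weeks after application on a visual rating scale.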

persian speedwell [3] = test: Test Example 5: herbicidal effect by foliage application, plastic box (Table 20, symbol R); type: in vivo, Persian speedwell (Veronica persica); conditions: foliage application, 320 g/ha, evaluated three weeks after application
In short: as §2

barnyard grass [4] = test: Test Example 4: herbicidal effect by soil treatment (Table 19, symbol H); type: in vivo, barnyard grass (Echinochloa crus-galli); conditions: amount of applied herbicide 320 g/ha
In short: (§3)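 Three weeks of greenhouse growth at 25° C. to 30° C. followed a uniform surface spray of water-diluted emulsion at a predetermined herbicide amount. Seeds had been sown beforehand under about 1.5 cm of sterilized diluvial soil. Grading followed criteria set out in an earlier test.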

southern crabgrass [5] = test: Test Example 4: herbicidal effect by soil treatment (Table 19, symbol F); type: in vivo, southern crabgrass (Digitaria ciliaris); conditions: amount of applied herbicide 320 g/ha
In short: as §3

rice flat sedge = test: Test Example 3: herbicidal effect by foliage application, Wagner pot (Table 18, symbol E); type: in vivo, rice flat sedge (Cyperus iria); conditions: amount of applied herbicide 320 g/ha
In short: as §1

green foxtail [6] = test: Test Example 4: herbicidal effect by soil treatment (Table 19, symbol G); type: in vivo, green foxtail (Setaria viridis); conditions: amount of applied herbicide 320 g/ha
In short: as §3

wild oat [7] = test: Test Example 5: herbicidal effect by foliage application, plastic box (Table 20, symbol I); type: in vivo, wild oat (Avena fatua); conditions: foliage application, 320 g/ha, evaluated three weeks after application
In short: as §2

persian speedwell [8] = test: Test Example 4: herbicidal effect by soil treatment (Table 19, symbol R); type: in vivo, Persian speedwell (Veronica persica); conditions: amount of applied herbicide 320 g/ha
In short: as §3

windgrass [9] = test: Test Example 5: herbicidal effect by foliage application, plastic box (Table 20, symbol L); type: in vivo, windgrass (Apera spica-venti); conditions: foliage application, 320 g/ha, evaluated three weeks after application
In short: as §2

windgrass [10] = test: Test Example 4: herbicidal effect by soil treatment (Table 19, symbol L); type: in vivo, windgrass (Apera spica-venti); conditions: amount of applied herbicide 320 g/ha
In short: as §3

velvetleaf [11] = test: Test Example 4: herbicidal effect by soil treatment (Table 19, symbol M); type: in vivo, velvetleaf (Abutilon theophrasti); conditions: amount of applied herbicide 320 g/ha
In short: as §3

lambsquarters [12] = test: Test Example 5: herbicidal effect by foliage application, plastic box (Table 20, symbol O); type: in vivo, lambsquarters (Chenopodium album); conditions: foliage application, 320 g/ha, evaluated three weeks after application
In short: as §2

lambsquarters [13] = test: Test Example 4: herbicidal effect by soil treatment (Table 19, symbol O); type: in vivo, lambsquarters (Chenopodium album); conditions: amount of applied herbicide 320 g/ha
In short: as §3

southern crabgrass [14] = test: Test Example 5: herbicidal effect by foliage application, plastic box (Table 20, symbol F); type: in vivo, southern crabgrass (Digitaria ciliaris); conditions: foliage application, 320 g/ha, evaluated three weeks after application
In short: as §2

barnyard grass [15] = test: Test Example 5: herbicidal effect by foliage application, plastic box (Table 20, symbol H); type: in vivo, barnyard grass (Echinochloa crus-galli); conditions: foliage application, 320 g/ha, evaluated three weeks after application
In short: as §2

blackgrass [16] = test: Test Example 5: herbicidal effect by foliage application, plastic box (Table 20, symbol J); type: in vivo, blackgrass (Alopecurus myosuroides); conditions: foliage application, 320 g/ha, evaluated three weeks after application
In short: as §2

Italian ryegrass [17] = test: Test Example 5: herbicidal effect by foliage application, plastic box (Table 20, symbol K); type: in vivo, Italian ryegrass (Lolium multiflorum); conditions: foliage application, 320 g/ha, evaluated three weeks after application
In short: as §2

late watergrass = test: Test Example 1: herbicidal activity, application before weed generation under submerged conditions (Table 16, symbol A); type: in vivo, late watergrass (Echinochloa oryzicola); conditions: 320 g/ha applied herbicide
In short: (§4)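 Alluvial soil was flooded to 4 cm depth, weed seeds were sown mixed and 2.5-leaf rice seedlings were transplanted. On sowing day, the compound's emulsion, diluted in water to a set dose, was applied to the water surface. Plants grew at 25–30 °C and were scored 0–5 after three weeks.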

oval-leafed pondweed = test: Test Example 1: herbicidal activity, application before weed generation under submerged conditions (Table 16, symbol C); type: in vivo, oval-leafed pondweed (Monochoria vaginalis); conditions: 320 g/ha applied herbicide
In short: as §4

blackgrass [18] = test: Test Example 4: herbicidal effect by soil treatment (Table 19, symbol J); type: in vivo, blackgrass (Alopecurus myosuroides); conditions: amount of applied herbicide 320 g/ha
In short: as §3

chickweed [19] = test: Test Example 5: herbicidal effect by foliage application, plastic box (Table 20, symbol P); type: in vivo, common chickweed (Stellaria media); conditions: foliage application, 320 g/ha, evaluated three weeks after application
In short: as §2

redroot pigweed [20] = test: Test Example 4: herbicidal effect by soil treatment (Table 19, symbol N); type: in vivo, redroot pigweed (Amaranthus retroflexus); conditions: amount of applied herbicide 320 g/ha
In short: as §3

Chinese sprangletop = test: Test Example 3: herbicidal effect by foliage application, Wagner pot (Table 18, symbol D); type: in vivo, chinese sprangletop (Leptochloa chinensis); conditions: amount of applied herbicide 320 g/ha
In short: as §1

Japanese bulrush = test: Test Example 1: herbicidal activity, application before weed generation under submerged conditions (Table 16, symbol B); type: in vivo, Japanese bulrush (Schoenoplectus juncoides); conditions: 320 g/ha applied herbicide
In short: as §4

wild oat [21] = test: Test Example 4: herbicidal effect by soil treatment (Table 19, symbol I); type: in vivo, wild oat (Avena fatua); conditions: amount of applied herbicide 320 g/ha
In short: as §3

chickweed [22] = test: Test Example 4: herbicidal effect by soil treatment (Table 19, symbol P); type: in vivo, common chickweed (Stellaria media); conditions: amount of applied herbicide 320 g/ha
In short: as §3

Italian ryegrass [23] = test: Test Example 4: herbicidal effect by soil treatment (Table 19, symbol K); type: in vivo, Italian ryegrass (Lolium multiflorum); conditions: amount of applied herbicide 320 g/ha
In short: as §3

redroot pigweed [24] = test: Test Example 5: herbicidal effect by foliage application, plastic box (Table 20, symbol N); type: in vivo, redroot pigweed (Amaranthus retroflexus); conditions: foliage application, 320 g/ha, evaluated three weeks after application
In short: as §2

green foxtail [25] = test: Test Example 5: herbicidal effect by foliage application, plastic box (Table 20, symbol G); type: in vivo, green foxtail (Setaria viridis); conditions: foliage application, 320 g/ha, evaluated three weeks after application
In short: as §2

CCCC(=O)Oc1c(C)nn(C)c(=O)c1-c1c(-c2cccc(C(F)(F)F)c2)sc2ccc(F)cc12 [2-232]
herbicidal effect on H: barnyard grass (barnyard grass [1]): 4 (Herbicidal rate of 70% or more and less than 90%) | herbicidal effect on M: velvetleaf (criteria 0-5) (velvetleaf [2]): 5 (Herbicidal rate of 90% or more (almost completely withered)) | herbicidal effect on R: persian speedwell (criteria 0-5) (persian speedwell [3]): 5 (Herbicidal rate of 90% or more (almost completely withered)) | herbicidal effect on H: barnyard grass (barnyard grass [4]): 0 (Herbicidal rate of 5% or less (almost no effect)) | herbicidal effect on F: southern crabgrass (southern crabgrass [5]): 0 (Herbicidal rate of 5% or less (almost no effect)) | herbicidal effect on E: rice flat sedge (rice flat sedge): 5 (Herbicidal rate of 90% or more (almost completely withered)) | herbicidal effect on G: green foxtail (green foxtail [6]): 0 (Herbicidal rate of 5% or less (almost no effect)) | herbicidal effect on I: wild oat (criteria 0-5) (wild oat [7]): 0 (Herbicidal rate of 5% or less (almost no effect)) | herbicidal effect on R: persian speedwell (persian speedwell [8]): 3 (Herbicidal rate of 40% or more and less than 70%) | herbicidal effect on L: windgrass (criteria 0-5) (windgrass [9]): 1 (Herbicidal rate of 5% or more and less than 20%) | herbicidal effect on L: windgrass (windgrass [10]): 0 (Herbicidal rate of 5% or less (almost no effect)) | herbicidal effect on M: velvetleaf (velvetleaf [11]): 0 (Herbicidal rate of 5% or less (almost no effect)) | herbicidal effect on O: lambsquarters (criteria 0-5) (lambsquarters [12]): 3 (Herbicidal rate of 40% or more and less than 70%) | herbicidal effect on O: lambsquarters (lambsquarters [13]): 0 (Herbicidal rate of 5% or less (almost no effect)) | herbicidal effect on F: southern crabgrass (criteria 0-5) (southern crabgrass [14]): 0 (Herbicidal rate of 5% or less (almost no effect)) | herbicidal effect on H: barnyard grass (criteria 0-5) (barnyard grass [15]): 0 (Herbicidal rate of 5% or less (almost no effect)) | herbicidal effect on J: blackgrass (criteria 0-5) (blackgrass [16]): 0 (Herbicidal rate of 5% or less (almost no effect)) | herbicidal effect on K: Italian ryegrass (criteria 0-5) (Italian ryegrass [17]): 0 (Herbicidal rate of 5% or less (almost no effect)) | Herbicidal effect on A: late watergrass (grade 0-5) (late watergrass): 3 (Herbicidal rate of 40% or more and less than 70%) | Herbicidal effect on C: oval-leafed pondweed (grade 0-5) (oval-leafed pondweed): 0 (Herbicidal rate of 5% or less (almost no effect)) | herbicidal effect on J: blackgrass (blackgrass [18]): 0 (Herbicidal rate of 5% or less (almost no effect)) | herbicidal effect on P: chickweed (criteria 0-5) (chickweed [19]): 5 (Herbicidal rate of 90% or more (almost completely withered)) | herbicidal effect on N: redroot pigweed (redroot pigweed [20]): 0 (Herbicidal rate of 5% or less (almost no effect)) | herbicidal effect on D: Chinese sprangletop (Chinese sprangletop): 5 (Herbicidal rate of 90% or more (almost completely withered)) | Herbicidal effect on B: Japanese bulrush (grade 0-5) (Japanese bulrush): 0 (Herbicidal rate of 5% or less (almost no effect)) | herbicidal effect on I: wild oat (wild oat [21]): 0 (Herbicidal rate of 5% or less (almost no effect)) | herbicidal effect on P: chickweed (chickweed [22]): 3 (Herbicidal rate of 40% or more and less than 70%) | herbicidal effect on K: Italian ryegrass (Italian ryegrass [23]): 0 (Herbicidal rate of 5% or less (almost no effect)) | herbicidal effect on N: redroot pigweed (criteria 0-5) (redroot pigweed [24]): 5 (Herbicidal rate of 90% or more (almost completely withered)) | herbicidal effect on G: green foxtail (criteria 0-5) (green foxtail [25]): 0 (Herbicidal rate of 5% or less (almost no effect))

From US20230085307A1, “PYRIDAZINONE COMPOUND AND HERBICIDE” (NISSAN CHEMICAL CORPORATION, priority 2019, published 2023)
